Values quoted from earlier work in patent US20080200497A1, “Hepatitis C Inhibitor Peptide Analogs” (priority 2005, published 2008).

System: hepatitis C virus
Settings: two day clinical trial, patients infected with the hepatitis C virus

Compound: COc1ccc2c(O[C@@H]3C[C@H]4C(=O)N[C@]5(C(=O)O)C[C@H]5/C=C\CCCCC[C@H](NC(=O)OC5CCCC5)C(=O)N4C3)cc(-c3csc(NC(C)C)n3)nc2c1 [BILN 2061]
- reduction of viral loads: effective in rapidly reducing viral loads
